For this experiment, the target named is T1, SMARCA2 (Homo sapiens, UniProt P51531).
T1 construct: endogenous in cells
In words: SMARCA2 HiBiT degradation assay (cellular). The conditions noted are these: for Emax: A549, Emax = amount of residual protein remaining in the cell following compound treatment; for DC50: SMARCA2 HiBiT cells, luminescence readout, 11-point titration from 10 μM, 6 hours or 16 hours, read-out: HiBit A549 SMARCA2 IP. It is filed as cell-based.

T1 sequence (P51531 whole entry): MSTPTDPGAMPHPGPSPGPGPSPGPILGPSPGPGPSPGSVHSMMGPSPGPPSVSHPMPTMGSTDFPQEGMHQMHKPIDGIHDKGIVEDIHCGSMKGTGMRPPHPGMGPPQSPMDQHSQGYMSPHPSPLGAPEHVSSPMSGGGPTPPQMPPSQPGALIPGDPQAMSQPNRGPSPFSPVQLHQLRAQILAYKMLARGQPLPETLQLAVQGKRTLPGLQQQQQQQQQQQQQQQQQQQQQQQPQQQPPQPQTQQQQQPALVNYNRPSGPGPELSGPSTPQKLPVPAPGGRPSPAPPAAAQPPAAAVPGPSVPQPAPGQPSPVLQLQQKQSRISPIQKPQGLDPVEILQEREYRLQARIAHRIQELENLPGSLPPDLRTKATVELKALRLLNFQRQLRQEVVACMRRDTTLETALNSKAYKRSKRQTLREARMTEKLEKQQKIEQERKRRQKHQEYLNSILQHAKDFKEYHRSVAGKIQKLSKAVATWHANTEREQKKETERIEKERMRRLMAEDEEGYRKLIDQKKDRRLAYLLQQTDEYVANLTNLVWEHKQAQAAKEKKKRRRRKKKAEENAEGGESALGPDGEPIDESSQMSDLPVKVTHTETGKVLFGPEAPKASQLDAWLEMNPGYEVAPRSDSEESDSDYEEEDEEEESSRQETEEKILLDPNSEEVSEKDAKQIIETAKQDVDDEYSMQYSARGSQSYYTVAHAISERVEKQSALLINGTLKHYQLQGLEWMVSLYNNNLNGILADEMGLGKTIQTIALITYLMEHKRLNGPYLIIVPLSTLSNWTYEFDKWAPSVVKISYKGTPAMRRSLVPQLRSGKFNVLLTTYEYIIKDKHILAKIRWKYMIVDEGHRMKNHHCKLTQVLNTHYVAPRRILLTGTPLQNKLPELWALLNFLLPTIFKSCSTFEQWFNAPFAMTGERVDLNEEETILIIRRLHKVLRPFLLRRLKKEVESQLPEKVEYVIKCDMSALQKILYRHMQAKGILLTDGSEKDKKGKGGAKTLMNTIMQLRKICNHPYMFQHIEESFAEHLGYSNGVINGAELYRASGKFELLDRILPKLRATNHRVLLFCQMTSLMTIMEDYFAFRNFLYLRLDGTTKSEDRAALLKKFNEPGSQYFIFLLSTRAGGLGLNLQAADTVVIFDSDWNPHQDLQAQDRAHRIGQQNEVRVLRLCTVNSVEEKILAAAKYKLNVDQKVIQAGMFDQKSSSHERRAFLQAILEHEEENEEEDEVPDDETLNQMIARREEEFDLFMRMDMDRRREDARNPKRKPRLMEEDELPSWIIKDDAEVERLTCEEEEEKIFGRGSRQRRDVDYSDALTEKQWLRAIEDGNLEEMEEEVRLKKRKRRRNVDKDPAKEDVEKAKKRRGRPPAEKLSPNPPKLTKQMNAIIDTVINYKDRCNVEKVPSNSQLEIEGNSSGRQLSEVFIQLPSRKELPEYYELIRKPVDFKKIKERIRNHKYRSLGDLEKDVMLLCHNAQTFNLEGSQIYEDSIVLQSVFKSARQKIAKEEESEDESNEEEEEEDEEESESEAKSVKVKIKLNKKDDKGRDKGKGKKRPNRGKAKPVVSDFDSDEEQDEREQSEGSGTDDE

Regarding `Cc1ncsc1-c1ccc([C@H](C)NC(=O)[C@@H]2C[C@@H](O)CN2C(=O)[C@@H](NC(=O)CCCCCC(=O)N2CCN(c3cccc(N4CCCC(Oc5cc(-c6ccccc6O)nnc5N)C4)c3)CC2)C(C)(C)C)cc1` (mixture of isomers) [Example 90, rac-(2S,4R)-4-hydroxy-1-[rac-(2S)-2-[[7-[4-[3-[3-[3-amino-6-(2-hydroxyphenyl)pyridazin-4-yl]oxy-1-piperidyl]phenyl]piperazin-1-yl]-7-oxo-heptanoyl]amino]-3,3-dimethyl-butanoyl]-N-[rac-(1S)-1-[4-(4-methylthiazol-5-yl)phenyl]ethyl]pyrrolidine-2-carboxamide], the maximal response (Emax) (as a rule, the size of the effect at its maximum, as opposed to the concentration needed) worked out at 34% and the DC50 is 1320 nM.

On to `Cc1ncsc1-c1ccc([C@H](C)NC(=O)[C@@H]2C[C@@H](O)CN2C(=O)[C@@H](NC(=O)CCCCCCCCCC(=O)N2CCN(CCOc3cccc(N4C5CCC4CN(c4cc(-c6ccccc6O)nnc4N)C5)c3)CC2)C(C)C)cc1` [Example 56, (2S,4R)-1-[(2S)-2-[[11-[4-[2-[3-[3-[3-amino-6-(2-hydroxyphenyl)pyridazin-4-yl]-3,8-diazabicyclo[3.2.1]octan-8-yl]phenoxy]ethyl]piperazin-1-yl]-11-oxo-undecanoyl]amino]-3-methyl-butanoyl]-4-hydroxy-N-[(1S)-1-[4-(4-methylthiazol-5-yl)phenyl]ethyl]pyrrolidine-2-carboxamide], for which the maximum response (Emax) came to 20% and the DC50 came out at 91 nM.

Consider `Cc1ncsc1-c1ccc(CNC(=O)[C@@H]2C[C@@H](O)CN2C(=O)[C@@H](NC(=O)CCCCCCCCC(=O)N2CCN(CCOc3cccc(N4CCOC5(CCN(c6cc(-c7ccccc7O)nnc6N)CC5)C4)c3)CC2)C(C)(C)C)cc1` [Example 52, (2S,4R)-1-[(2S)-2-[[10-[4-[2-[3-[9-[3-amino-6-(2-hydroxyphenyl)pyridazin-4-yl]-1-oxa-4,9-diazaspiro[5.5]undecan-4-yl]phenoxy]ethyl]piperazin-1-yl]-10-oxo-decanoyl]amino]-3,3-dimethyl-butanoyl]-4-hydroxy-N-[[4-(4-methylthiazol-5-yl)phenyl]methyl]pyrrolidine-2-carboxamide], for which the Emax was found to be 56% and the DC50 amounted to 533 nM.

As for `Cc1ncsc1-c1ccc([C@H](C)NC(=O)[C@@H]2C[C@@H](O)CN2C(=O)[C@@H](NC(=O)CCCCCC(=O)N2CCN(Cc3cccc(CCOc4cc(-c5ccccc5O)nnc4N)c3)CC2)C(C)(C)C)cc1` [Example 105, (2S,4R)-1-[(2S)-2-[[7-[4-[[3-[2-[3-amino-6-(2-hydroxyphenyl)pyridazin-4-yl]oxyethyl]phenyl]methyl]piperazin-1-yl]-7-oxo-heptanoyl]amino]-3,3-dimethyl-butanoyl]-4-hydroxy-N-[(1S)-1-[4-(4-methylthiazol-5-yl)phenyl]ethyl]pyrrolidine-2-carboxamide], the maximal effect (Emax) was 40% and the DC50 was 923 nM.

In the case of `Cc1ncsc1-c1ccc(CNC(=O)[C@@H]2C[C@@H](O)CN2C(=O)[C@@H](NC(=O)CCCCCCCCCC(=O)N2CCN(CCOc3cccc(N4CC5CCC(C4)N5c4cc(-c5cc(F)ccc5O)nnc4N)c3)CC2)C(C)(C)C)cc1` [Example 110, (2S,4R)-1-[(2S)-2-[[11-[4-[2-[3-[8-[3-amino-6-(5-fluoro-2-hydroxy-phenyl)pyridazin-4-yl]-3,8-diazabicyclo[3.2.1]octan-3-yl]phenoxy]ethyl]piperazin-1-yl]-11-oxo-undecanoyl]amino]-3,3-dimethyl-butanoyl]-4-hydroxy-N-[[4-(4-methylthiazol-5-yl)phenyl]methyl]pyrrolidine-2-carboxamide], the Emax stood at 76% and the DC50 came to 760 nM.
